# Data: patent US5843449A, “Proteins and novel peptides derived from autoantigen for use in immunotherapy of autoimmune diseases” (Akzo Nobel N.V., priority 1996, dated 1998)
# “And” between values parts separate entries of the source, which are not always exact repeats. Identical values can stand only once.
# Experiments:
# Type in all cases: in vivo
# [1] = test system: Balb/c mice; assay: Arthritogenicity of HC gp-39 in Balb/c mice; conditions: for arthritis signs: mild (number of animals) / arthritis signs: none (number of animals) / arthritis signs: severe (number of animals): n = 4; for arthritis signs: mild (number of animals): mild: score per animal does not exceed 2; for arthritis signs: none (number of animals): none: score = 0; for arthritis signs: severe (number of animals): severe: score per animal ≥3
# Procedure: (§1) 10 or 50 μg of purified HC gp-39 in a 100 μl volume PPBS (0.5M NaCl, 0.01M sodium phosphate buffer, pH 7.5) mixed 1:1 in incomplete Freunds adjuvant (IFA) was injected subcutaneously in the chest region in 2×4 female Balb/c mice (Harlan CPB, Zeist, The Netherlands) whereas 4 controls were injected with PBS (1:1 in IFA). Mice were examined daily for clinical signs of arthritis. Severity of arthritis was assessed by scoring each paw from 0-3 (according to the article by Glant et al). In short, score 0=no changes, score 1=erythema and swelling, score 2=swelling and appearance of deformities, score 3=immobility due to loss of flexion and extension.
# [2] = test system: Balb/c mice; assay: Tolerance to arthritis induction or progression after intranasal HC gp-39; conditions: for arthritis signs: mild (number of animals): mild: score per animal does not exceed 2; for arthritis signs: severe (number of animals): severe: score per animal ≥4; for arthritis onset (day): first signs appear - highest number of animals affected: monitored to day 31
# Procedure: as §1
# (§2) Twenty eight μg of protein was administered intranasally (2×10 μl) to 10 female Balb/c mice (anesthetized lightly with Enflurance) using a PT45 micro conduit and a Hamilton syringe. Antigen was administered on day -15, -10 and -5 prior to arthritis induction. Controls (n=10) were submitted to the same procedure but received the vehicle (PBS) only (Table 5).
# Tolerance to arthritis induction in these same mice was then further monitored until day 31 following sensitization and mice were examined daily for clinical signs. Severity of arthritis was assessed as mentioned above.
# [3] = test system: Balb/c mice; assay: Immunological tolerance by intranasal HC gp-39, DTH assay (footpad swelling)
# Procedure: as §2
# Immunological tolerance was evaluated by measuring delayed type hypersensitivity (DTH) response following sensitization as described above on day 0, using 10 μg of protein. Sensitization on day 0 was followed by an injection of 10 μg HC gp-39 in […] in the left hind footpad on day 8 (challenge). DTH reactions were measured as the increase in footpad ([swelling left (mm×10^-3)-swelling right (mm×10^-3)]/swelling right (mm×10^-3))×100%. The footpad swelling was measured using an in house designed μmeter at 0, 24 and 48 hr after challenge.
# [4] = controls (n = 10), non-tolerized, 10 μg HC gp-39 s.c.
# [5] = tolerized (n = 10): 28 μg HC gp-39 intranasal x3, then 10 μg s.c.
# [6] = controls (n = 10): PBS intranasal, 10 μg HC gp-39 s.c. day 0, 10 μg footpad challenge day 8
# [7] = tolerized (n = 9): 28 μg HC gp-39 intranasal day -15, -10, -5, 10 μg s.c. day 0, 10 μg footpad day 8
substance,measurement,setting,value
"HC gp-39: Human Cartilage glycoprotein 39, purified from culture supernatant of MG63 human osteosarcoma cells; target autoantigen in RA",arthritis signs: mild (number of animals),[1]; 10 μg s.c. in IFA,One and 1
same,arthritis signs: none (number of animals),[1]; 10 μg s.c. in IFA,0
same,arthritis signs: severe (number of animals),[1]; 10 μg s.c. in IFA,Three out of 4 and 3
same,arthritis signs: mild (number of animals),[1]; 50 μg s.c. in IFA,0
same,arthritis signs: none (number of animals),[1]; 50 μg s.c. in IFA,0
same,arthritis signs: severe (number of animals),[1]; 50 μg s.c. in IFA,all mice and 4
same,"arthritis onset (day) FP (fore paw), per animal","[1]; 50 μg s.c. in IFA, n = 4 Balb/c mice",15 to 20 days
same,frequency of symmetrical distribution of afflicted joints,"[1]; 50 μg s.c. in IFA, followed for 62 days",> 50%
same,arthritis signs: mild (number of animals),[2]; [4],three and 3
same,arthritis signs: none (number of animals),"[2]; controls (n = 10), non-tolerized, 10 μg HC gp-39 s.c., no signs: score 0",0
same,arthritis signs: severe (number of animals),[2]; [4],Seven and 7
same,arthritis onset (day): first signs appear - highest number of animals affected,"[2]; controls (n = 10), non-tolerized, sensitized with 10 μg HC gp-39 s.c.",13 to 16 days
same,arthritis onset (day): first signs appear - highest number of animals affected,"[2]; tolerized (n = 10): 28 μg HC gp-39 intranasal day -15, -10, -5, then 10 μg s.c.",23 to 24 days
same,arthritis signs: mild (number of animals),[2]; [5],two and 2
same,arthritis signs: severe (number of animals),[2]; [5],Three and 3
same,"delay of arthritis onset in tolerized animals, hind and fore paws respectively","[2]; tolerized vs non-tolerized, FIG. 1",7 to 9 days
same,DTH response (in words),[3]; control (non-tolerized) mice injected with HC gp-39 at day 0,"strong, antigen-specific DTH response"
same,"DTH, mean % swelling 0 hr",[3]; [6],-1.3%
same,"DTH, mean % swelling 24 hr",[3]; [6],31.4%
same,"DTH, mean % swelling 48 hr",[3]; [6],38.6%
same,"arthritis ankle (animals affected, adjacent to site of challenge)",[3]; [6],4 out of 10 and 4/10 and four out of ten
same,"DTH, mean % swelling 0 hr",[3]; [7],-0.05%
same,"DTH, mean % swelling 24 hr",[3]; [7],3.7%
same,"DTH, mean % swelling 48 hr",[3]; [7],1.5%
same,"arthritis ankle (animals affected, adjacent to site of challenge)",[3]; [7],did not develop an arthritis and 0/9 and fully protected
same,DTH responses upon challenge (in words),[3]; tolerized by intranasal administration of HC gp-39,completely abrogated
